From ChEMBL document CHEMBL6109158, “Discovery of Novel Bifunctional Agents as Potent Androgen Receptor Antagonists and Degraders for the Treatment of Enzalutamide-Resistant Prostate Cancer” (J Med Chem, 2025)

How the values were obtained:
CWR22R = assay: cells; assay type: functional, cell-based; conditions: Homo sapiens, 22Rv1, […]
Description: Antiproliferative activity against human 22Rv1 cells assessed as inhibition of cell growth incubated for 7 days by celltiter-glo assay

in vitro [1] = conditions: human, microsomes
in vivo [2] = conditions: male, C57BL/6, mouse, iv, 1 mg/kg
Description: Clearance in male C57BL/6 mouse at 1 mg/kg, iv

in vitro [3] = conditions: mouse, microsomes
Description: Metabolic stability in mouse liver microsomes assessed as half life

LNCaP = assay: cells; assay type: functional, cell-based; conditions: Homo sapiens
Description: Antiproliferative activity against human LNCaP cells assessed as inhibition of cell growth incubated for 7 days by celltiter-glo assay

LNCaP C4-2 = assay: cells; assay type: functional, cell-based; conditions: Homo sapiens
Description: Antiproliferative activity against human C4-2 cells assessed as inhibition of cell growth incubated for 7 days by celltiter-glo assay

in vivo [4] = conditions: male, C57BL/6, mouse, iv, 1 mg/kg; remark: listed apart in the source
Description: C0 in male C57BL/6 mouse at 1 mg/kg, iv

in vivo [5] = conditions: male, C57BL/6, mouse, iv, 1 mg/kg; remark: listed apart in the source
Description: Half life in male C57BL/6 mouse at 1 mg/kg, iv

in vivo [6] = conditions: male, C57BL/6, mouse, iv, 1 mg/kg; remark: listed apart in the source
in vivo [7] = conditions: male, C57BL/6, mouse, iv, 1 mg/kg; remark: listed apart in the source
Description: Volume of distribution at steady state in male C57BL/6 mouse at 1 mg/kg, iv

cells = assay type: functional, cell-based; conditions: Homo sapiens, Enzalutamide-resistant C4-2B
in vitro [8] = conditions: human, microsomes; remark: listed apart in the source
in vivo [9] = conditions: male, C57BL/6, mouse, brain, iv, 1 mg/kg
Description: Ratio of drug concentration in male C57BL/6 mouse brain to plasma at 1 mg/kg, iv measured after 1 hr

in vitro [10] = conditions: mouse, microsomes; remark: listed apart in the source

CNC(=O)c1ccc(N2C(=S)N(c3cnc(C#N)c(C(F)(F)F)c3)C(=O)C23CCC3)cc1F [APALUTAMIDE]
IC50 (CWR22R): > 100 µM

N#Cc1ccc(O[C@H]2CC[C@H](NC(=O)c3ccc(N4CCC(CN5CCN(c6cc7c(cc6F)C(=O)N(C6CCC(=O)NC6=O)C7=O)CC5)CC4)nn3)CC2)cc1Cl (some centres not stated) [BAVDEGALUTAMIDE]
IC50 (CWR22R): > 100 µM

C[C@](O)(CN1CC2CCC(C1)N2c1ccc(C#N)cc1)C(=O)Nc1ccc([N+](=O)[O-])c(C(F)(F)F)c1
IC50 (CWR22R): 1.65 µM

C[C@](O)(Cn1ccc2cc(F)ccc21)C(=O)Nc1ccc(C#N)c(C(F)(F)F)c1
IC50 (CWR22R): 3.53 µM

C[C@](O)(CN1CC2CCC(C1)N2c1ccc(C#N)cn1)C(=O)Nc1ccc(C#N)c(C(F)(F)F)c1
IC50 (CWR22R): 2.28 µM

C[C@](O)(CN1CC2CCC(C1)N2c1ccc(C#N)cc1)C(=O)Nc1ccc(C#N)c(Cl)c1
half-life (in vitro [1]): 9.95 min
clearance (in vivo [2]): 7.09 mL/min/kg
half-life (in vitro [3]): 12.2 min
IC50 (LNCaP): 1.57 µM
IC50 (LNCaP C4-2): 1.19 µM
C0 (in vivo [4]): 1420 ng/mL
half-life (in vivo [5]): 244 min
AUC(0-t) (in vivo [6]): 2330 ng·h/mL
Vd (in vivo [7]): 1.87 L/kg
IC50 (cells): 5.23 µM
microsomal CLint (in vitro [8]): 139 µL/min/mg
Kp at 1 h (in vivo [9]): 0.55
microsomal CLint (in vitro [10]): 114 µL/min/mg

C[C@]12CC[C@H](O)CC1=CC[C@@H]1[C@@H]2CC[C@]2(C)C(n3cnc4ccccc43)=CC[C@@H]12 [GALETERONE]
IC50 (CWR22R): 12 µM

C[C@](O)(CN1CC2CCC(C1)N2Cc1ccc(C#N)cc1)C(=O)Nc1ccc(C#N)c(C(F)(F)F)c1
IC50 (CWR22R): 20.5 µM

COc1c(C#N)ccc(NC(=O)[C@@](C)(O)CN2CC3CCC(C2)N3c2ccc(C#N)cc2)c1F
IC50 (CWR22R): 5.3 µM

C[C@](O)(CN1CC2CCC(C1)N2c1ncc(C#N)cn1)C(=O)Nc1ccc(C#N)c(C(F)(F)F)c1
IC50 (CWR22R): 4.05 µM

Cc1cc(C#N)ccc1N1C2CCC1CN(C[C@](C)(O)C(=O)Nc1ccc(C#N)c(C(F)(F)F)c1)C2
IC50 (CWR22R): 3.08 µM

C[C@](O)(CN1CC2CCC(C1)N2c1ccc(C#N)cc1)C(=O)Nc1cnc(C#N)c(Cl)c1
clearance (in vivo [2]): 16.2 mL/min/kg
C0 (in vivo [4]): 1140 ng/mL
IC50 (CWR22R): 1.68 µM
half-life (in vivo [5]): 96.6 min
AUC(0-t) (in vivo [6]): 1030 ng·h/mL
Vd (in vivo [7]): 1.42 L/kg
Kp at 1 h (in vivo [9]): 0.33

COc1cc(NC(=O)[C@@](C)(O)CN2CC3CCC(C2)N3c2ccc(C#N)cc2)ccc1C#N
IC50 (CWR22R): 2.23 µM

C[C@](O)(CN1CC2CCC(C1)N2c1cnc(C#N)nc1)C(=O)Nc1cnc(C#N)c(C(F)(F)F)c1
IC50 (CWR22R): 15.8 µM

C[C@](O)(CN1C[C@@H]2C[C@H]1CN2c1ccc(C#N)cc1)C(=O)Nc1ccc(C#N)c(C(F)(F)F)c1
IC50 (CWR22R): 10 µM

C[C@](O)(CN1CC2CCC(C1)N2c1ccc(F)cc1)C(=O)Nc1ccc(C#N)c(C(F)(F)F)c1
IC50 (CWR22R): 12.9 µM

C[C@](O)(CN1CC2CCC(C1)N2c1cnc(C#N)nc1)C(=O)Nc1ccc(C#N)c(C(F)(F)F)c1
IC50 (CWR22R): 5.24 µM

CC(O)c1cc(C(=O)N[C@@H](C)Cn2ccc(-c3ccc(C#N)c(Cl)c3)n2)n[nH]1 (some centres not stated) [DAROLUTAMIDE]
IC50 (CWR22R): 31.2 µM

COc1cc(C#N)ccc1N1C2CCC1CN(C[C@](C)(O)C(=O)Nc1ccc(C#N)c(C(F)(F)F)c1)C2
IC50 (CWR22R): 4.12 µM
